Experimental data as given in ChEMBL document CHEMBL1201862, “PubChem BioAssay data set” (2004).
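Interpolation was linear, between the two tested concentrations surrounding the appropriate level; five concentrations were tested over 48 hours in 96-well plates. At the GI50, growth is halved.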 Calls of active or inactive are those of the source. No stated cut-off is given here; in the data, active = GI50 up to about 1.1 µM and inactive = higher.

Columns and labels:
Experiment in all cases: growth of human tumour cells (NCI), 48 h
[1] = system: SNB-19
[2] = system: HT-29
[3] = system: LXFL 529
[4] = system: CAKI-1
[5] = system: SF-268
[6] = system: SNB-75
[7] = system: IGROV-1
[8] = system: SF-539
[9] = system: OVCAR-3
[10] = system: K562
[11] = system: M14
[12] = system: SN12C
[13] = system: LOX IMVI
[14] = system: OVCAR-5
[15] = system: HCT-116
[16] = system: NCI-H460
[17] = system: 786-0
[18] = system: UO-31
[19] = system: HL-60
[20] = system: UACC-257
[21] = system: SF-295
[22] = system: SR
[23] = system: HCC 2998
[24] = system: SK-MEL-5
[25] = system: M19-MEL
[26] = system: RXF 631
[27] = system: A549
[28] = system: SK-MEL-28
[29] = system: RXF 393
[30] = system: NCI-H226
[31] = system: EKVX
[32] = system: KM-20L2
[33] = system: HOP-92
[34] = system: ACHN
[35] = system: OVCAR-4
[36] = system: TK-10
[37] = system: OVCAR-8
[38] = system: SNB-78
[39] = system: KM12
[40] = system: DMS-114
[41] = system: SW-620
[42] = system: NCI-H23
[43] = system: NCI-H522
[44] = system: HOP-62
[45] = system: SK-MEL-2
[46] = system: MOLT-4
[47] = system: SK-OV-3
[48] = system: COLO 205
[49] = system: DMS-273
[50] = system: XF498
[51] = system: HCT-15
[52] = system: CCRF-CEM
[53] = system: Malme-3M
[54] = system: RPMI-8226
[55] = system: U-251
[56] = system: HOP-18
[57] = system: A498
[58] = system: DLD-1
[59] = system: UACC-62

## CCCn1c(SCC)c2cc3cc4ccccc4cc3cc2c1-c1nc(F)nc(F)n1
[1]
  GI50: > 100 µM (inactive)
[2]
  GI50: > 100 µM (inactive)
[3]
  GI50: > 100 µM (inactive)
[4]
  GI50: > 100 µM (inactive)
[5]
  GI50: > 100 µM (inactive)
[6]
  GI50: > 100 µM (inactive)
[7]
  GI50: > 100 µM (inactive)
[8]
  GI50: > 100 µM (inactive)
[9]
  GI50: > 100 µM (inactive)
[10]
  GI50: > 100 µM (inactive)
[11]
  GI50: > 100 µM (inactive)
[12]
  GI50: > 100 µM (inactive)
[13]
  GI50: > 100 µM (inactive)
[14]
  GI50: > 100 µM (inactive)
[15]
  GI50: > 100 µM (inactive)
[16]
  GI50: > 100 µM (inactive)
[17]
  GI50: > 100 µM (inactive)
[18]
  GI50: > 100 µM (inactive)
[19]
  GI50: > 100 µM (inactive)
[20]
  GI50: > 100 µM (inactive)
[21]
  GI50: > 100 µM (inactive)
[22]
  GI50: > 100 µM (inactive)
[23]
  GI50: > 100 µM (inactive)
[24]
  GI50: > 100 µM (inactive)
[25]
  GI50: > 100 µM (inactive)
[26]
  GI50: > 100 µM (inactive)
[27]
  GI50: > 100 µM (inactive)
[28]
  GI50: > 100 µM (inactive)
[29]
  GI50: > 100 µM (inactive)
[30]
  GI50: > 100 µM (inactive)
[31]
  GI50: > 100 µM (inactive)
[32]
  GI50: > 100 µM (inactive)
[33]
  GI50: > 100 µM (inactive)
[34]
  GI50: > 100 µM (inactive)
[35]
  GI50: > 100 µM (inactive)
[36]
  GI50: > 100 µM (inactive)
[37]
  GI50: > 100 µM (inactive)
[38]
  GI50: > 100 µM (inactive)
[39]
  GI50: > 100 µM (inactive)
[40]
  GI50: > 100 µM (inactive)
[41]
  GI50: > 100 µM (inactive)
[42]
  GI50: > 100 µM (inactive)
[43]
  GI50: > 100 µM (inactive)
[44]
  GI50: > 100 µM (inactive)
[45]
  GI50: > 100 µM (inactive)
[46]
  GI50: > 100 µM (inactive)
[47]
  GI50: > 100 µM (inactive)
[48]
  GI50: > 100 µM (inactive)
[49]
  GI50: > 100 µM (inactive)
[50]
  GI50: > 100 µM (inactive)
[51]
  GI50: > 100 µM
[52]
  GI50: > 100 µM (inactive)
[53]
  GI50: > 100 µM (inactive)
[54]
  GI50: > 100 µM (inactive)

## COc1ccc2c(c1)C=C(C(C)(C)C)NS2(=O)=O
[1]
  GI50: > 100 µM (inactive)
[2]
  GI50: > 100 µM (inactive)
[55]
  GI50: > 100 µM (inactive)
[3]
  GI50: > 100 µM (inactive)
[4]
  GI50: > 100 µM (inactive)
[5]
  GI50: > 100 µM (inactive)
[6]
  GI50: > 100 µM (inactive)
[7]
  GI50: > 100 µM (inactive)
[8]
  GI50: > 100 µM (inactive)
[9]
  GI50: > 100 µM (inactive)
[10]
  GI50: > 100 µM (inactive)
[11]
  GI50: > 100 µM (inactive)
[56]
  GI50: > 100 µM (inactive)
[12]
  GI50: > 100 µM (inactive)
[13]
  GI50: > 100 µM (inactive)
[14]
  GI50: > 100 µM (inactive)
[15]
  GI50: > 100 µM (inactive)
[16]
  GI50: > 100 µM (inactive)
[17]
  GI50: > 100 µM (inactive)
[18]
  GI50: > 100 µM (inactive)
[19]
  GI50: > 100 µM (inactive)
[20]
  GI50: > 100 µM (inactive)
[21]
  GI50: > 100 µM (inactive)
[22]
  GI50: > 100 µM (inactive)
[23]
  GI50: > 100 µM (inactive)
[24]
  GI50: > 100 µM (inactive)
[25]
  GI50: > 100 µM (inactive)
[26]
  GI50: > 100 µM (inactive)
[27]
  GI50: > 100 µM (inactive)
[28]
  GI50: > 100 µM (inactive)
[29]
  GI50: > 100 µM (inactive)
[30]
  GI50: > 100 µM (inactive)
[31]
  GI50: > 100 µM (inactive)
[32]
  GI50: > 100 µM (inactive)
[57]
  GI50: > 100 µM (inactive)
[33]
  GI50: > 100 µM (inactive)
[34]
  GI50: > 100 µM (inactive)
[35]
  GI50: > 100 µM (inactive)
[58]
  GI50: > 100 µM (inactive)
[36]
  GI50: > 100 µM (inactive)
[37]
  GI50: > 100 µM (inactive)
[38]
  GI50: > 100 µM (inactive)
[39]
  GI50: > 100 µM (inactive)
[40]
  GI50: > 100 µM (inactive)
[41]
  GI50: > 100 µM (inactive)
[42]
  GI50: > 100 µM (inactive)
[43]
  GI50: > 100 µM (inactive)
[44]
  GI50: > 100 µM (inactive)
[45]
  GI50: > 100 µM (inactive)
[46]
  GI50: > 100 µM (inactive)
[47]
  GI50: > 100 µM (inactive)
[48]
  GI50: > 100 µM (inactive)
[49]
  GI50: > 100 µM (inactive)
[51]
  GI50: > 100 µM
[59]
  GI50: > 100 µM (inactive)
[52]
  GI50: > 100 µM (inactive)
[53]
  GI50: > 100 µM (inactive)

## CC(C)(c1ccc(C=O)o1)c1ccc(C(C)(C)c2ccc(C=O)o2)o1
[1]
  GI50: > 100 µM (inactive)
[2]
  GI50: > 100 µM (inactive)
[55]
  GI50: > 100 µM (inactive)
[3]
  GI50: > 100 µM (inactive)
[4]
  GI50: > 100 µM (inactive)
[5]
  GI50: > 100 µM (inactive)
[7]
  GI50: > 100 µM (inactive)
[8]
  GI50: > 100 µM (inactive)
[10]
  GI50: > 100 µM (inactive)
[56]
  GI50: > 100 µM (inactive)
[13]
  GI50: > 100 µM (inactive)
[14]
  GI50: > 100 µM (inactive)
[15]
  GI50: > 100 µM (inactive)
[16]
  GI50: > 100 µM (inactive)
[17]
  GI50: > 100 µM (inactive)
[19]
  GI50: > 100 µM (inactive)
[20]
  GI50: > 100 µM (inactive)
[21]
  GI50: > 100 µM (inactive)
[22]
  GI50: > 100 µM (inactive)
[23]
  GI50: > 100 µM (inactive)
[26]
  GI50: > 100 µM (inactive)
[27]
  GI50: > 100 µM (inactive)
[28]
  GI50: > 100 µM (inactive)
[29]
  GI50: > 100 µM (inactive)
[30]
  GI50: > 100 µM (inactive)
[31]
  GI50: > 100 µM (inactive)
[32]
  GI50: > 100 µM (inactive)
[57]
  GI50: > 100 µM (inactive)
[33]
  GI50: 69.5 µM (inactive)
[34]
  GI50: > 100 µM (inactive)
[35]
  GI50: > 100 µM (inactive)
[36]
  GI50: > 100 µM (inactive)
[37]
  GI50: > 100 µM (inactive)
[38]
  GI50: > 100 µM (inactive)
[39]
  GI50: > 100 µM (inactive)
[41]
  GI50: > 100 µM (inactive)
[42]
  GI50: > 100 µM (inactive)
[43]
  GI50: > 100 µM (inactive)
[44]
  GI50: > 100 µM (inactive)
[45]
  GI50: > 100 µM (inactive)
[46]
  GI50: > 100 µM (inactive)
[47]
  GI50: > 100 µM (inactive)
[48]
  GI50: > 100 µM (inactive)
[49]
  GI50: > 100 µM (inactive)
[52]
  GI50: > 100 µM (inactive)
[53]
  GI50: > 100 µM (inactive)
